Eight molecules from ChEMBL document CHEMBL1146040, “Lactones from a brown alga endophytic fungus (No. ZZF36) from the South China Sea and their antimicrobial activities” (2006) can be followed below.

≈ marks a conversion by molar mass, not a printed value. Bounds are passed on as bounds.

One test relates to Candida albicans. The test is described as follows: Antifungal activity against Candida albicans ATCC 10231. Type of test: functional.
Another test has as its system Fusarium oxysporum. The test is described as follows: Antifungal activity against Fusarium oxysporum f.sp.cubense. The format is functional.
In a further test the test system is Escherichia coli. The test is described as follows: Antibacterial activity against Escherichia coli ATCC 25922. Type of test: functional.
A further test concerns Salmonella enteritidis. The test is described as follows: Antibacterial activity against Salmonella enteritidis ATCC 13076. The format is functional, Salmonella enterica subsp. enterica serovar Enteritidis. The conditions noted are these: Salmonella enterica.
The next test has as its system Bacillus subtilis. The test can be described thus: Antibacterial activity against Bacillus subtilis ATCC 6633. The format is functional.
Another test has as its system Staphylococcus aureus. The test can be described thus: Antibacterial activity against Staphylococcus aureus ATCC 27154. Type of test: functional.

A word on the MIC: it is the lowest concentration that inhibits growth of the organism. NYSTATIN: the MIC against Candida albicans came out at 1.56 µg/mL; against Fusarium oxysporum, 3.12 µg/mL.
In the case of `CC1CCC(=O)CCCCc2cc(O)cc(O)c2C(=O)O1` (configuration not stated), the MIC with Escherichia coli, against Salmonella enteritidis, in the test with Bacillus subtilis, in the test with Candida albicans, in the test on Fusarium oxysporum and against Staphylococcus aureus was > 100 µg/mL in each case.
As to `CC1CC(O)CCCCCc2cc(O)cc(O)c2C(=O)O1` (configuration not stated), the MIC against Escherichia coli is > 100 µg/mL; in the test on Salmonella enteritidis it was > 100 µg/mL; in the test on Bacillus subtilis, > 100 µg/mL; against Candida albicans, > 100 µg/mL; in the test on Fusarium oxysporum, > 100 µg/mL; against Staphylococcus aureus, 100 µg/mL (≈ 340 µM).
As to `COc1cc(O)cc2c1C(=O)O[C@@H](C)CCCCCCC2` [LASIODIPLODIN], the minimal inhibitory concentration (MIC) in the test on Escherichia coli was > 100 µg/mL; in the test on Salmonella enteritidis, > 100 µg/mL; in the test on Bacillus subtilis, 50 µg/mL (≈ 171 µM); against Candida albicans, > 100 µg/mL; with Fusarium oxysporum it was 100 µg/mL (≈ 342 µM); against Staphylococcus aureus, 25 µg/mL (≈ 85.5 µM).
For `COc1cc(OC(C)=O)cc2c1C(=O)OC(C)CCCCCCC2` (configuration not stated), the MIC in the test with Escherichia coli, with Salmonella enteritidis, against Bacillus subtilis, in the test on Candida albicans, in the test on Fusarium oxysporum and against Staphylococcus aureus was > 100 µg/mL in each case.
Regarding `CC1(C)S[C@@H]2[C@H](NC(=O)[C@H](N)c3ccccc3)C(=O)N2[C@H]1C(=O)O` [AMPICILLIN], the MIC in the test with Escherichia coli is 6.25 µg/mL (≈ 17.9 µM); with Salmonella enteritidis, 50 µg/mL (≈ 143 µM); against Bacillus subtilis it was 100 µg/mL (≈ 286 µM); against Staphylococcus aureus, > 100 µg/mL.
As for `CC1CCCCCCCc2cc(O)cc(O)c2C(=O)O1` (configuration not stated), the minimum inhibitory concentration (MIC) in the test with Escherichia coli is > 100 µg/mL; against Salmonella enteritidis, 12.5 µg/mL (≈ 44.9 µM); against Bacillus subtilis, 12.5 µg/mL (≈ 44.9 µM); against Candida albicans, 100 µg/mL (≈ 359 µM); against Fusarium oxysporum it was 50 µg/mL (≈ 180 µM); in the test on Staphylococcus aureus, 6.25 µg/mL (≈ 22.5 µM).
Take `COc1c(Br)c(O)c(Br)c2c1C(=O)OC(C)CCCCCCC2` (configuration not stated): the MIC was > 100 µg/mL in the test on Escherichia coli; > 100 µg/mL against Salmonella enteritidis; 6.25 µg/mL (≈ 13.9 µM) with Bacillus subtilis; > 100 µg/mL against Candida albicans; 12.5 µg/mL (≈ 27.8 µM) against Fusarium oxysporum; > 100 µg/mL against Staphylococcus aureus.
